Data published in patent US12384817B2, “Peptide having protective activity against cell damage caused by particulate matter, and uses for same” (CAREGEN CO., LTD., priority 2020, dated 2025).
No end group written: not given here.

Experiments:
[1] = tested on: cytochrome P450; test: Cytochrome P450 activity in particulate matter-treated HaCaT cells (P450-Glo Assay); type: cell-based; conditions: HaCaT human keratinocytes; peptide pretreatment 1 hour at 20, 100, 200 μM; then 50 μg/cm^2 urban particulate matter 24 hours; FIG. 3
Text: When polyaromatic hydrocarbons (PAHs) present in particulate matter penetrate into cells and bind to AHR, it promotes nuclear translocation of AHR. It is known that the AHR translocated into the nucleus forms a complex AHR/ARNT with an AHR nuclear translocator (ARNT), and this complex act as a transcription factor to promote the expression of cytochrome P450 (CYPs). In order to confirm the effect of the synthesized peptide in inhibiting cell damage caused by particulate matter, an experiment was performed for confirming whether the peptide inhibits the activity of cytochrome P450 after the cells were treated with particulate matter.
(§1) First, HaCaT cells, which are human keratinocytes, were seeded into a 96-well plate at a density of 1×10^4 cells/well. After overnight incubation, the media were replaced with serum-free media. The keratinocytes, HaCaT were pretreated with the synthesized peptides for 1 hour at each concentration (20 μM, 100 μM, and 200 μM). Then, the cells were treated with 50 μg/cm^2 of urban particulate matter (Sigma, NIST1648A) for 24 hours. After the keratinocytes were collected, the activity of cytochrome P450 was measured using P450-Glo™ Assay kit (Promega).

[2] = tested on: cytochrome P450; test: Cytochrome P450 activity in particulate matter-treated A549 cells (P450-Glo Assay); type: cell-based; conditions: A549 human alveolar epithelial cells; peptide pretreatment 1 hour at 20, 100, 200 μM; then 50 μg/cm^2 urban particulate matter 24 hours; FIG. 4
Experimental: In addition, in order to confirm whether the peptide can suppress respiratory damage caused by particulate matter, an experiment for measuring the activity of cytochrome P450 was also performed on A549 cells, which are human alveolar epithelial cells.
as §1, with “human alveolar epithelial” for “HaCaT”, “A549 cells” for “which are human keratinocytes,”, “1.2×10^4” for “1×10^4”, “alveolar epithelial cells, A549 cells” for “keratinocytes, HaCaT”, “treated cells” for “keratinocytes”

SSNAEVLALF [SEQ ID NO: 1, SSNAEVLALF]
activity of cytochrome P450 increased by the treatment of particulate matter [1]: reduced in a concentration dependent manner | activity of cytochrome P450 increased by the treatment of particulate matter [2]: reduced in a concentration dependent manner
